Source: patent US4849425A, “Readily absorbable pharmaceutical composition” (Ishihara Sangyo Kaisha Ltd., priority 1985, dated 1989)
In brackets after ≈: the same amount, converted by molar mass.

Experiments:
[1] = Rectal suppository, plasma concentration in rats (Test Example 6); format: in vivo, Wistar male rat; details: rat; for Concentration in the plasma / concentration at 0.5 h / concentration at 1 h / concentration at 2 h / concentration at 4 h: rectal; for Concentration in the plasma: 0; for concentration at 0.5 h / concentration at 1 h / concentration at 2 h / concentration at 4 h: plasma
Method: A Witepsol W-35 suppository (weight: about 45 mg) comprising 1.8 mg of Compound No. 3 and 12.5% (weight/volume) of dimethyl β-type cyclodextrin, was administered to the rectum of each Wistar male rat having a body weight of about 90 g (a group of three rats). Then, the blood was periodically sampled from the jugular vein, and the concentration of Compound No. 3 in the plasma was measured. To a control group, a suppository contained no cyclodextrin was administered. It is evident that by the addition of dimethyl β-type cyclodextrin, the absorbability of Compound No. 3 increased.

[2] = Absorbability through the gut, oral, various dispersing solvents, plasma concentration in rats (Test Example 4); format: in vivo, Wistar male rats; details: 20 mg/kg, rat
Method: 20 mg of Compound No. […] 3. The suspension was orally administered by an oral sonde to a group of three Wistar male rats (body weight: 200-250g). The dose of Compound No. 3 was 20 mg/kg rat body weight. Further, Compound No. 3 was likewise suspended in an aqueous solution containing 0.5% of sodium salt of carboxymethyl cellulose, and the suspension was used as the control ( in FIG. 3). After the administration, the blood was periodically sampled, and the plasma was separated. After the removal of protein by acetonitrile, Compound No. 3 in the plasma was quantitatively analyzed by a high speed liquid chromatography as shown in Test Example 1.
The changes with time of the concentration of Compound No. 3 in the plasma after the oral administration were studied in the same manner as in Test Example 3 by using an aqueous solution of 10% (weight/volume) Polysolvate 80 (Tween 80, manufactured by Nakayai Kagaku K.K.), 10% (weight/volume) polyoxyethylene hardened caster oil 60 (manufactured by Nikko Chemical K.K.), 100% polyethylene glycol 400 or 50% (weight/volume) dimethyl β-type cyclodextrin, as the dispersing solvent for Compound No. 3, and an aqueous solution of 0.5% (weight/volume) sodium salt of carboxymethyl cellulose, as the control. […]

[3] = Solubility of Compound No. 3 in aqueous cyclodextrin solutions or polyethylene glycol 400 at 25° C. (Test Example 2); format: physicochemical
Method: 0.1 μmol of Compound No. 1 or No. 2 was added to 1 ml of an aqueous solution of each cyclodextrin with a concentration of from 0 to 8 mM, and the mixture was shaken at 25° C. for 100 hours. After completion of the shaking, the mixture was filtered through a millipore filter of 0.45 μm to obtain a filtrate.
Separation column: As the packing material, octadecylated silica gel was filled in a stainless steel tube having an internal diameter of from 0.39 to 4.6 mm and a length of from 100 to 300 mm.
Column temperature: 30° C.
Mobile phase: Mixture of acetonitrile-water (the mixing ratio was adjusted so that the eluting time of the drug becomes from 5 to 10 minutes).
Wave length for detection: 265 nm
7.5 mg of […]. was added to 1 ml of an aqueous solution of each cyclodextrin at various concentrations or to 1 ml of polyethylene glycol 400, and the solubility of Compound No. 3 at 25° C. was obtained in the same manner as the Test Example b 1.

L-1210 leukemia cells = assay: Antitumour activity against intraperitoneally inoculated L-1210 leukemia, oral administration (Test Example 9); format: in vivo, BDF1 mice
From the text: The pharmacological activities of the pharmaceutical compositions of the present invention were studied.
To BDF1 mice (male, […]), L-1210 leukemia cells were intraperitoneally inoculated in an amount of 1×10^6 cells/mouse. One day later and 4 days later, a test drug was orally administered. […]

[4] = Absorbability through the gut, oral suspension in cyclodextrin solutions, plasma concentration in rats (Test Example 3); format: in vivo, Wistar male rats; details: 40% dimethyl β-type cyclodextrin vs control (0.5% sodium carboxymethyl cellulose), 20 mg/kg, rat
Method: 20 mg of Compound No. 3 was taken into a mortar, and 5 ml of an aqueous solution containing 1.7% of β-type cyclodextrin or 2% or 40% of dimethyl β-type cyclodextrin was added under stirring to obtain a suspension of Compound No. 3. The suspension was orally administered by an oral sonde to a group of three Wistar male rats (body weight: 200-250g). The dose of Compound No. 3 was 20 mg/kg rat body weight. Further, Compound No. 3 was likewise suspended in an aqueous solution containing 0.5% of sodium salt of carboxymethyl cellulose, and the suspension was used as the control ( in FIG. 3). After the administration, the blood was periodically sampled, and the plasma was separated. After the removal of protein by acetonitrile, Compound No. 3 in the plasma was quantitatively analyzed by a high speed liquid chromatography as shown in Test Example 1.

[5] = Oral capsules, plasma concentration in beagle dogs (Test Example 7); format: in vivo; details: for Concentration in the plasma: 0
Method: The capsules prepared in Example 3 corresponding to 20 mg/kg of Compound No. 3 were orally administered to three beagle dogs (male: body weight: 5 kg). Then, the blood was periodically sampled from the branchium vein, and the concentration of Compound No. 3 in the plasma was measured. To the control group, a suspension of Compound No. 3 (20 mg/ml) in an aqueous solution containing 0.5% of sodium salt of carboxymethyl cellulose was administered. It is evident that the present invention, the absorbability of Compound No. 3 increased.

[6] = 1.8 mg, Witepsol W-35 suppository, 12.5% (w/v) dimethyl β-type cyclodextrin
[7] = 1.8 mg, control suppository without cyclodextrin
[8] = dog, plasma, po, 20 mg/kg, control, suspension in 0.5% sodium salt of carboxymethyl cellulose
[9] = dog, plasma, po, 20 mg/kg, polyethylene glycol 400 capsules of Example 3, oral 20 mg/kg

O=C(NC(=O)c1ccccc1[N+](=O)[O-])Nc1ccc(Oc2ncc(Br)cn2)c(Cl)c1 [Compound No. 3, N-(2-nitrobenzoyl)-N'-[4-(5-bromo-2-pyrimidinyloxy)-3-chlorophenyl]urea]
Concentration in the plasma ([1]; Witepsol W-35 suppository, 1.8 mg, 12.5% (w/v) dimethyl β-type cyclodextrin): 0 ng/mL
absorbability ([1]; addition of dimethyl β-type cyclodextrin, rectal suppository): increased
Concentration in the plasma ([1]; control suppository without cyclodextrin): 0 ng/mL
concentration at 0.5 h [1, 6]: 320 ng/mL
concentration at 1 h [1, 6]: 480 ng/mL
concentration at 2 h [1, 6]: 940 ng/mL
concentration at 4 h [1, 6]: 990 ng/mL
concentration at 0.5 h [1, 7]: 40 ng/mL
concentration at 1 h [1, 7]: 80 ng/mL
concentration at 2 h [1, 7]: 110 ng/mL
concentration at 4 h [1, 7]: 90 ng/mL
concentration in the plasma as compared with the control ([2]; 50% (w/v) dimethyl β-type cyclodextrin vs 0.5% sodium carboxymethyl cellulose): about 7.5 times
concentration in the plasma as compared with the control ([2]; 100% polyethylene glycol 400 vs 0.5% sodium carboxymethyl cellulose): about 5 times
solubility ([3]; aqueous dimethyl α-type cyclodextrin, dimethyl α-type cyclodextrin 17.5 mg/ml, aqueous): 0.294 µg/mL (≈ 0.597 µM)
solubility ([3]; aqueous dimethyl β-type cyclodextrin, dimethyl β-type cyclodextrin 20.0 mg/ml, aqueous): 24.1 µg/mL (≈ 48.9 µM)
solubility ([3]; aqueous dimethyl β-type cyclodextrin, dimethyl β-type cyclodextrin 140 mg/ml, aqueous): 5180 µg/mL (≈ 10500 µM)
solubility ([3]; aqueous dimethyl β-type cyclodextrin, dimethyl β-type cyclodextrin 500 mg/ml, aqueous): 7440 µg/mL (≈ 15100 µM)
solubility ([3]; aqueous solution, no additives, aqueous solution containing no additives): 0.024 µg/mL (≈ 0.0487 µM)
solubility ([3]; aqueous trimethyl β-type cyclodextrin, trimethyl β-type cyclodextrin 21.4 mg/ml, aqueous): 1 µg/mL (≈ 2.03 µM)
solubility ([3]; aqueous trimethyl β-type cyclodextrin, trimethyl β-type cyclodextrin 100 mg/ml, aqueous): 13.4 µg/mL (≈ 27.2 µM)
solubility ([3]; aqueous trimethyl β-type cyclodextrin, trimethyl β-type cyclodextrin 200 mg/ml, aqueous): 30.4 µg/mL (≈ 61.7 µM)
solubility ([3]; aqueous α-type cyclodextrin 14.6 mg/ml, α-type cyclodextrin 14.6 mg/ml, aqueous): 0.164 µg/mL (≈ 0.333 µM)
solubility ([3]; aqueous β-type cyclodextrin 17.0 mg/ml, β-type cyclodextrin 17.0 mg/ml, aqueous): 1.64 µg/mL (≈ 3.33 µM)
solubility ([3]; polyethylene glycol 400, organic solvent or mixture, polyethylene glycol 400, 100%): 7500 µg/mL (≈ 15200 µM)
antitumour activities (L-1210 leukemia cells; only when administered together with the substance specified in the invention): distinctly observed
T/C (L-1210 leukemia cells; polyethylene glycol 400 + substrate + Compound No. 3, 6.25 mg/kg): 120%
T/C (L-1210 leukemia cells; polyethylene glycol 400 + substrate + Compound No. 3, 12.5 mg/kg): 134%
T/C (L-1210 leukemia cells; polyethylene glycol 400 + substrate + Compound No. 3, 25 mg/kg): 183%
T/C (L-1210 leukemia cells; polyethylene glycol 400 + substrate + Compound No. 3, 50 mg/kg): 95%
antitumour activities (L-1210 leukemia cells; polyethylene glycol 400 absent): no antitumour activities were observed
T/C (L-1210 leukemia cells; substrate + Compound No. 3 (no polyethylene glycol 400), 6.25 mg/kg): 102%
T/C (L-1210 leukemia cells; substrate + Compound No. 3 (no polyethylene glycol 400), 12.5 mg/kg): 102%
T/C (L-1210 leukemia cells; substrate + Compound No. 3 (no polyethylene glycol 400), 25 mg/kg): 101%
T/C (L-1210 leukemia cells; substrate + Compound No. 3 (no polyethylene glycol 400), 50 mg/kg): 103%
concentration in the plasma relative to the control [4]: about 3.5 times
Concentration in the plasma ([5]; control, suspension in 0.5% sodium salt of carboxymethyl cellulose, oral): 0 ng/mL
concentration at 1 h [5, 8]: 70 ng/mL
concentration at 2 h [5, 8]: 100 ng/mL
concentration at 1 h [5, 9]: 610 ng/mL
concentration at 2 h [5, 9]: 1120 ng/mL
concentration at 4 h ([5]; dog, plasma, po, 20 mg/kg, polyethylene glycol 400 capsules of Example 3, oral 20 mg/kg, 4 hrs): 1110 ng/mL
absorbability ([5]; polyethylene glycol 400 capsules of Example 3, oral): increased
Concentration in the plasma ([5]; polyethylene glycol 400 capsules of Example 3, oral 20 mg/kg): 0 ng/mL
